# Test results: patent publication US20240424107A1, “PREPARATION OF SITE-SPECIFIC POLYPEPTIDE CONJUGATES” (POSTECH RESEARCH AND BUSINESS DEVELOPMENT FOUNDATION, priority 2023, published 2024)
# Biological target: T1, Human-alpha thrombin (Homo sapiens, UniProt P00734)
# T1 construct: Human-alpha thrombin and its well-known aptamers, HD1
# Assay: Covalent conjugation of oxanine-containing aptamer to thrombin, conversion rate over time (SDS-PAGE/electrophoresis)
# Format: biochemical
# Conditions: thrombin 1.25 μM, HEPES pH 8.4, 37° C., FIG. 3
# Protocol: Human-alpha thrombin and its well-known aptamers, HD1 (15-mer length of aptamer that binds to exosite I of thrombin; 5′-[…]-3′; SEQ ID NO: 1) and HD2 (29-mer length of aptamer that binds to exosite II of thrombin; 5′-[…]-3′; SEQ ID NO: 2) were used. Each aptamer labeled with fluorescent dye at 5′-terminus and 10 dOTPs at 3′-terminus was prepared (See Example 1-1) and mixed with thrombin. Specifically, thrombin (1.25 μM), NaCl (100 mM), MgCl2 (5 mM), KCl (5 mM), Tween-20 (0.01% v/v), and oxanine-inserted HD1 (1 equiv. relative to thrombin) and HD2 (2 equiv. relative to thrombin) in HEPES (50 mM pH 8.4) were mixed at 37° C. for 1 day.
# Whether the aptamer brings oxanine close to the amine group of the target protein, enabling proximity-enhanced covalent bond formation, was monitored with SDS-PAGE (protein bands) and electrophoresis (DNA bands). As a comparison group, aptamers HD1 and HD2 without oxanine introduced, or random DNA (not aptamer) with oxanine introduced, were used, and an untreated control group without any treatment with thrombin was also used for comparison.
row,Substance,time to reach 50% modification rate (conversion of aptamer to aptamer-thrombin conjugate) [min]
1,"HD1: 15-mer thrombin exosite I aptamer 5′-GGTTGGTGTGGTTGG-3′ with fluorescent dye at 5′-terminus and 10 dOTPs (oxanine) at 3′-terminus (DNA, backbone not given here; 5' fluorescent dye, 3' tail of ten oxanine deoxynucleotides)",≤ 12.6
2,"HD22: 29-mer thrombin exosite II aptamer 5′-AGTCCGTGGTAGGGCAGGTTGGGGTGACT-3′ with fluorescent dye at 5′-terminus and 10 dOTPs (oxanine) at 3′-terminus (DNA, backbone not given here; 5' fluorescent dye, 3' tail of ten oxanine deoxynucleotides)",≤ 101
